Assay results: the CheMixHub viscosity set
“And” between values parts separate entries of the source, which are not always exact repeats. Equal entries are not always repeated. ± gives the uncertainty stated by the source.

C/C=C/C(=O)OCC
101 kPa
Conditions | viscosity [mPa·s]
293.15 K | 0.8184 ± 0.0091
298.15 K | 0.7576 ± 0.0085
303.15 K | 0.7053 ± 0.0079
313.15 K | 0.6154 ± 0.007
323.15 K | 0.5471 ± 0.0063

C=CC(=O)OC(C)(C)C
viscosity [mPa·s]
Conditions | 293.15 K | 298.15 K | 303.15 K | 308.15 K | 313.15 K | 318.15 K
100 kPa | 0.9072 ± 0.012 | 0.8309 ± 0.011 | 0.76 ± 0.011 | 0.701 ± 0.011 | 0.6485 ± 0.011 | 0.6034 ± 0.011
101 kPa | 0.9072 ± 0.037 | 0.8309 ± 0.034 | 0.76 ± 0.031 | 0.701 ± 0.029 | 0.6485 ± 0.026 | 0.6034 ± 0.025

CC(=O)[O-].CCCC[N+](CC)(CC)CC
101 kPa
Conditions | viscosity [mPa·s]
298.2 K | 439 ± 23
313.2 K | 306.7 ± 14

CC(C)OCCO
101.33 kPa
Conditions | viscosity [mPa·s]
298.15 K | 2.106 ± 0.026
308.15 K | 1.649 ± 0.021
318.15 K | 1.315 ± 0.017

CC(C)c1cc(C(C)C)cc(C(C)C)c1
102 kPa
Conditions | viscosity [mPa·s]
293.15 K | 4.12 ± 0.07
303.15 K | 3.05 ± 0.06
313.15 K | 2.35 ± 0.05
323.15 K | 1.86 ± 0.04

CCCCCC(C)C
100 kPa
Conditions | viscosity [mPa·s]
293.15 K | 0.5 ± 0.007
303.15 K | 0.444 ± 0.007
313.15 K | 0.393 ± 0.006
323.15 K | 0.355 ± 0.006

CCCCCCBr
101 kPa
Conditions | viscosity [mPa·s]
298.15 K | 0.9475 ± 0.02
303.45 K | 0.885 ± 0.019
313.35 K | 0.782 ± 0.017

CCCCCCCC(=O)OCC(COC(=O)CCCCCCC)OC(=O)CCCCCCC
101.33 kPa
Conditions | viscosity [mPa·s]
298 K | 19.98 ± 0.37
303 K | 16.58 ± 0.31
308 K | 13.79 ± 0.25
313 K | 11.57 ± 0.21

CCCCCCCCCCCC[P+](CCCC)(CCCC)CCCC.N#Cc1ccc[n-]1
100 kPa
Conditions | viscosity [mPa·s]
293.15 K | 567 ± 84
298.15 K | 389 ± 57
303.15 K | 297 ± 43
313.15 K | 166 ± 24

CCCCCCCCN(CCCCCCCC)CCCCCCCC
Conditions | viscosity
298.15 K, 101.33 kPa | 8.325 ± 0.24 mPa·s and 8.325 ± 0.23 mPa·s
303.15 K, 101 kPa | 6.95 ± 0.14 mPa·s

CCCCCC[N+]1(C)CCCC1.O=S(=O)([N-]S(=O)(=O)C(F)(F)F)C(F)(F)F
Conditions | viscosity [mPa·s]
293.15 K, 100 kPa | 136.2 ± 3.8
295.2 K, 101.3 kPa | 119.8 ± 17
298.15 K, 100 kPa | 102.8 ± 2.5
300.2 K, 101.3 kPa | 96.8 ± 11
303.15 K, 100 kPa | 79.59 ± 1.8
305.2 K, 101.3 kPa | 79.6 ± 6.4
308.15 K, 100 kPa | 63.07 ± 1.3
310.2 K, 101.3 kPa | 64.8 ± 3.3
313.15 K, 100 kPa | 51.01 ± 1.1
313.15 K, 101 kPa | 52.7 ± 5.4
315.2 K, 101.3 kPa | 54.2 ± 1.9
320.2 K, 101.3 kPa | 45.9 ± 2.2

CCCCNCCO
101.33 kPa
Conditions | viscosity [mPa·s]
293.15 K | 19.67 ± 0.42
298.15 K | 15.39 ± 0.33
303.15 K | 12.23 ± 0.26
308.15 K | 9.869 ± 0.21
313.15 K | 8.07 ± 0.17
318.15 K | 6.68 ± 0.14
323.15 K | 5.591 ± 0.12

CCCCOCCO
Conditions | viscosity
293.15 K, 101.3 kPa | 3.248 ± 0.16 mPa·s
293.15 K, 101.33 kPa | 3.26 ± 0.069 mPa·s
295.15 K, 101 kPa | 3.015 ± 0.027 mPa·s
297.15 K, 101 kPa | 2.857 ± 0.026 mPa·s
298 K, 101.3 kPa | 2.786 ± 0.073 mPa·s
298.15 K, 100 kPa | 2.855 ± 0.1 mPa·s
298.15 K, 101.3 kPa | 2.834 ± 0.14 mPa·s
298.15 K, 101.33 kPa | 2.844 ± 0.06 mPa·s
298.45 K, 101 kPa | 2.825 ± 0.026 mPa·s
299.15 K, 101 kPa | 2.709 ± 0.024 mPa·s
301.15 K, 101 kPa | 2.576 ± 0.023 mPa·s
303 K, 101.3 kPa | 2.403 ± 0.064 mPa·s
303.15 K, 101.33 kPa | 2.408 ± 0.061 mPa·s
305.15 K, 101 kPa | 2.327 ± 0.021 mPa·s
307.15 K, 101 kPa | 2.217 ± 0.019 mPa·s
308 K, 101.3 kPa | 2.115 ± 0.056 mPa·s
308.15 K, 100 kPa | 2.274 ± 0.1 mPa·s
308.15 K, 101.3 kPa | 2.228 ± 0.014 mPa·s and 2.204 ± 0.11 mPa·s
308.15 K, 101.33 kPa | 2.193 ± 0.1 mPa·s
309.15 K, 101 kPa | 2.118 ± 0.019 mPa·s
311.15 K, 101 kPa | 2.017 ± 0.018 mPa·s
313 K, 101.3 kPa | 1.867 ± 0.05 mPa·s
313.15 K, 101.3 kPa | 1.964 ± 0.099 mPa·s
313.15 K, 101.33 kPa | 1.97 ± 0.052 mPa·s and 1.869 ± 0.048 mPa·s
315.15 K, 101 kPa | 1.844 ± 0.016 mPa·s
317.15 K, 101 kPa | 1.764 ± 0.015 mPa·s
318 K, 101.3 kPa | 1.657 ± 0.044 mPa·s
318.15 K, 101 kPa | 1.937 ± 0.19 mPa·s and 1.938 ± 0.045 mPa·s and 1.928 ± 0.078 mPa·s
318.15 K, 101.3 kPa | 1.759 ± 0.089 mPa·s
318.15 K, 101.33 kPa | 1.764 ± 0.052 mPa·s
319.15 K, 101 kPa | 1.688 ± 0.015 mPa·s
321.15 K, 101 kPa | 1.618 ± 0.014 mPa·s
323.15 K, 101 kPa | 1.552 ± 0.013 mPa·s
323.15 K, 101.3 kPa | 1.584 ± 0.08 mPa·s
323.15 K, 101.33 kPa | 1.588 ± 0.051 mPa·s

CCCC[n+]1ccn(C)c1.N#C[C-](C#N)C#N
100 kPa
Conditions | viscosity [mPa·s]
293.15 K | 34.9 ± 1.8
298.15 K | 27.97 ± 1.4
303.15 K | 22.85 ± 1.2
308.15 K | 18.98 ± 0.97
313.15 K | 15.99 ± 0.82
318.15 K | 13.66 ± 0.7
323.15 K | 11.8 ± 0.6

CCCC[n+]1ccn(C)c1.O=[N+]([O-])[O-]
101 kPa
Conditions | viscosity [mPa·s]
293.15 K | 212.1
298.15 K | 158.8 ± 77
303.15 K | 121.2 ± 45
308.15 K | 94.07 ± 25
313.15 K | 74.19 ± 12
318.15 K | 59.38 ± 4.4
323.15 K | 48.18 ± 4.7

CCCC[n+]1ccn(C)c1C.F[B-](F)(F)F
Conditions | viscosity [mPa·s]
298.15 K, 101 kPa | 573 ± 51

CCNCCO
viscosity [mPa·s]
Conditions | 293.15 K | 298.15 K | 303.15 K | 308.15 K | 313.15 K | 318.15 K | 323.15 K
101 kPa | – | – | 9.639 ± 0.16 | 7.83 ± 0.13 | 6.419 ± 0.11 | 5.358 ± 0.087 | 4.517 ± 0.074
101.33 kPa | 16.27 ± 0.35 | 12.75 ± 0.27 | 10.16 ± 0.22 | 8.223 ± 0.17 | 6.748 ± 0.14 | 5.608 ± 0.12 | 4.714 ± 0.1
